PMC9293909 (Nature Communications, 2022)
Values joined by “and” are separate entries in the source; they are usually repeats but may differ in a detail not shown here. Equal entries are not always repeated.

Experiments:
[1] = test system: native presynaptic A1Rs, rat hippocampal slices; assay: Extracellular fEPSP recording, inhibition of excitatory synaptic transmission in hippocampal slices; format: cell-based
Method: (§1) Rats were kept on a 12-hour light-dark cycle with slices made 90 min after entering the light cycle. […] The brain was removed, cut down the midline and the two sides of the brain stuck down to a metal base plate using cyanoacrylate glue. […] Slices were stored at 34 °C for 1–6 h in aCSF (1 mM MgCl2, 2 mM CaCl2) before use.
A slice was transferred to the recording chamber, submerged in aCSF and perfused at 4–6 ml min^−1 (32 ± 0.5 °C). The slice was placed on a grid allowing perfusion above and below the tissue and all tubing was gastight (to prevent loss of oxygen). […] Field excitatory postsynaptic potentials (fEPSPs) were evoked with either an isolated pulse stimulator model 2100 (AM Systems, WA) or ISO-Flex (AMPI, Jerusalem, Israel). For fEPSPs a 10–20 min baseline was recorded at a stimulus intensity that gave 40-50% of the maximal response. […] For fEPSP slope, a 1 ms linear region after the fibre volley was measured. Extracellular recordings were made independently on two electrophysiology rigs.
Statistical significance was tested as indicated in the text using paired or unpaired two-tailed t-tests or one-way or two-way ANOVAs with repeated measures (RM) as appropriate. Bonferroni corrections for multiple comparisons were performed. All in vitro cell signalling assay data was analysed using Prism 8.4 (Graphpad software, San Diego, CA), with all concentration-response curves being fitted using a 3 parameter logistic equation to calculate response range and IC50. All cAMP data was normalised to a forskolin concentration-response curve ran in parallel to each assay.

[2] = test system: postsynaptic A1Rs, CA1 pyramidal cells; assay: Whole-cell patch-clamp, membrane potential of CA1 pyramidal cells; format: cell-based, rat
Method: as §1
A slice was transferred to the recording chamber and perfused at 3 ml min^−1 with aCSF at 32 ± 0.5 °C. Slices were visualised using IR-DIC optics with an Olympus BX151W microscope (Scientifica) and a CCD camera (Hitachi). […] Voltage and current recordings were obtained using an Axon Multiclamp 700B amplifier (Molecular Devices, USA) and digitised at 20 KHz. Data acquisition and analysis was performed using pClamp 10 (Molecular Devices, USA). For voltage-clamp experiments, CA1 pyramidal cells were held at −60 mV. Peptides to interfere with G protein signalling were introduced via the patch pipette into the recorded cell.

hA1R:Gob = hA1R:Gob (Homo sapiens, UniProt P30542); assay: cAMP inhibition in PTX-treated CHO-K1-hA1R cells with PTX-insensitive Gob; details: for Emax: read-out: Emax Gob; for Bias factor (Δ(τ/KA)) Gob: relative to adenosine, operational model; for cAMP accumulation, PTX-insensitive Gob (Fig. 2b): forskolin co-stimulation, individual repeats and mean
Sequence of hA1R:Gob (P30542 whole entry): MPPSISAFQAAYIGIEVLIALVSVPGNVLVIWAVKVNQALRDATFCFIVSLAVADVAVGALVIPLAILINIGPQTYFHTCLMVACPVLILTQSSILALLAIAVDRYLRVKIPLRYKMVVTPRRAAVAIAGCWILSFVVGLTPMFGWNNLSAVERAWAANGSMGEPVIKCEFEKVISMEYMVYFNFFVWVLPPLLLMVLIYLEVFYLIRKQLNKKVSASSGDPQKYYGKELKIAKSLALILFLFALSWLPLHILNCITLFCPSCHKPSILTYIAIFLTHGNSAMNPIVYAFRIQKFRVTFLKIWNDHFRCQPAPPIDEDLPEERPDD
Sequence of hA1R:Gob (P09471 2-354 isoform P09471-2 C351I partner limits assumed): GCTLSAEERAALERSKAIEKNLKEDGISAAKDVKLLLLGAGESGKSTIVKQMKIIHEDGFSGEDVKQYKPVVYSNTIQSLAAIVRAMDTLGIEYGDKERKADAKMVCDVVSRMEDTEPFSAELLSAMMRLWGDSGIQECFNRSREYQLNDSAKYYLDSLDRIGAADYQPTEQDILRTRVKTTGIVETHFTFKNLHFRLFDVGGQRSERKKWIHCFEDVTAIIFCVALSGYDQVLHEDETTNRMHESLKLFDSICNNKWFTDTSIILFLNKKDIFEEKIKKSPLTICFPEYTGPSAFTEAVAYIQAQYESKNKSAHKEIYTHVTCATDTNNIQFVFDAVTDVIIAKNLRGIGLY
Method: Cells were then incubated for 24 h before addition of 100 ng/ml PTX, to inhibit activity of endogenous Gαi/o, and then incubated for a further 16-18 h. Transfected cells were then assayed as per cAMP inhibition experiments, but co-stimulated with agonist and 100 nM forskolin.

rA3R = biological target: T1, rA3R (Rattus norvegicus, UniProt P28647); assay: cAMP inhibition at rA3R (Flp-In-CHO); format: cell-based; details: for Range rA3R: range of response as percentage of response to 10 μM forskolin
T1 construct: expressed in transfected cells; host or cells: Flp-In-CHO (ThermoFisher R75807), pcDNA5/FRT
T1 sequence (P28647 1-320): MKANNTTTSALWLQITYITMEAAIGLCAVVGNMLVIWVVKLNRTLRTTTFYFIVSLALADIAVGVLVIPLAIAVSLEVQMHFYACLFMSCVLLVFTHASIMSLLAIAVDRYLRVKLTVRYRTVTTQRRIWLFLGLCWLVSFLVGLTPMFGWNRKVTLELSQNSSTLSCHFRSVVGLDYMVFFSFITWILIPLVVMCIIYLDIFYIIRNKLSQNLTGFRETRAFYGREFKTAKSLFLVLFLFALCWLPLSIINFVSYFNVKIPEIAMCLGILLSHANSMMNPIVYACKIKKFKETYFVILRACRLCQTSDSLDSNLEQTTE
Description: Cell lines were maintained using standard subculturing routines as guided by the European Collection of Cell Culture (ECACC) and checked annually for mycoplasma infection using an EZ-PCR mycoplasma test kit from Biological Industries (Kibbutz Beit-Haemek, Israel). To investigate the signalling properties of the rat A3R (rA3R) and mutants of the human A1R (hA1R), stable cell lines were generated using Flp-In-CHO cells (ThermoFisher - R75807). Untagged hA1R from sigNanoLuciferase (Nluc)-A1R in pcDNA3.1+ and untagged rA3R from sigNluc-A3R in pcDNA3.1 + (both gifted by Dr Steve Briddon (University of Nottingham)) were cloned into the pcDNA5/FRT expression vector (Thermo Fisher Scientific). Mutations within the hA1R were made using the QuikChange Lightening Site-Directed Mutagenesis Kit (Agilent Technologies) in accordance with the manufacturer’s instructions. Constructs for generating Goa/b interfering and scrambled peptides were generated by PCR and cloned into the BamHI/HindIII site of pcDNA3.1- as described in Gilchrist et al.[60],. Prior to the initiator codon a Kozak sequence was included for enhanced translation. The peptide sequences used were: for Goa […], for Gob […], and for the scrambled peptide […] was used. Constructs were sequenced to confirm fidelity. Flp-In-CHO cells were generated through co-transfection of the cell line with pcDNA5/FRT expression vector (Thermo Fisher Scientific) containing the WT or mutant hA1R, or rA3R, and the Flp recombinase expressing plasmid, pOG44 (Thermo Fisher Scientific), in accordance with the manufacturer’s instructions. […] CHO cell lines expressing ARs of interest (including mutants of the hA1R) were routinely cultured in Ham’s F-12 nutrient mix supplemented with 10% foetal bovine serum (FBS), at 37 °C with 5% CO2, in a humidified atmosphere.

hA3R [3] = biological target: T2, hA3R (Homo sapiens, UniProt P0DMS8); assay: cAMP inhibition at hA3R; format: cell-based; details: for Range hA3R: range of response as percentage of response to 10 μM forskolin
T2 construct: expressed in transfected cells; host or cells: CHO-K1
T2 sequence (P0DMS8 1-318): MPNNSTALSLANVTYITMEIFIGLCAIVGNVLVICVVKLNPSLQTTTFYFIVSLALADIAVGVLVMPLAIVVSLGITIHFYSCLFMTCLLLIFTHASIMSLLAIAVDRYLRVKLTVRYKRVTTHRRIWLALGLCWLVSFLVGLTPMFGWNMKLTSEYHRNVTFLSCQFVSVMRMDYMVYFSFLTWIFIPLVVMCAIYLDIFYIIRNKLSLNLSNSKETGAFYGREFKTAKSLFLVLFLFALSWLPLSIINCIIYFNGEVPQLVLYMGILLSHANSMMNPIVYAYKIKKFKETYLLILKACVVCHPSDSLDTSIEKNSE
Method: CHO cell lines expressing ARs of interest (including mutants of the hA1R) were routinely cultured in Ham’s F-12 nutrient mix supplemented with 10% foetal bovine serum (FBS), at 37 °C with 5% CO2, in a humidified atmosphere.

hA3R [4] = biological target: T2, hA3R; assay: Binding affinity at hA3R (Supplementary Table 1); details: tracer not given (footnote d); read-out: pKi hA3R (converted)

OC[C@H]1O[C@@H](n2cnc3c(N[C@@H]4CCC[C@H]4O)ncnc32)[C@H](O)[C@@H]1O [HOCPA, (2 R,3 R,4 S,5 R)−2-(6-{[(1 R,2 R)−2-hydroxycyclopentyl]amino}−9H-purin-9-yl)−5-(hydroxymethyl)oxolane-3,4-diol]
reduction in fEPSP slope ([1]; single experiment, reversed by 8CPT 4 µM): ~ 80% | membrane hyperpolarisation ([2]; HOCPA 300 nM): 5.3 ± 0.5 mV | EC50 (hA1R:Gob): 0.603 µM | Emax (hA1R:Gob): -35.5% | Bias factor (Δ(τ/KA)) Gob (hA1R:Gob): 11.4176 | IC50 (rA3R; half-maximal response, cAMP inhibition, read-out: pIC50 rA3R (converted)): 0.0389 µM | Range rA3R (rA3R): 68.79 ± 3.70% | IC50 (hA3R [3]; half-maximal response, cAMP inhibition, read-out: pIC50 hA3R (converted)): 0.0245 µM | Range hA3R (hA3R [3]): 45.0 ± 2.1% | Ki (hA3R [4]): 0.589 µM

OC[C@H]1O[C@@H](n2cnc3c(NC4CCCC4)ncnc32)[C@H](O)[C@@H]1O [CPA, N^6-Cyclopentyladenosine]
inhibition at 0.1 µM ([1]; Rattus norvegicus, 0.1 uM, individual slices and average, read-out: inhibition of synaptic transmission (fEPSP), concentration-response data (Fig. 1f, g)): 104% | IC50 ([1]; fEPSP, rat hippocampal slices, read-out: IC50 inhibition of synaptic transmission): 0.0118 ± 0.0027 µM | membrane hyperpolarisation ([2]; CPA 300 nM in the presence of BnOCPA 300 nM): 2.75 ± 0.48 mV | cAMP accumulation, PTX-insensitive Gob (Fig. 2b) (hA1R:Gob; Log[Agonist] -6): -30.7 and -34.041 and -25.068 and -30.1931 and -28.2815 and -42.9468 and -23.6463 | cAMP accumulation, PTX-insensitive Gob (Fig. 2b) (hA1R:Gob; Log[Agonist] -6.5): -29.1 and -23.2817 and -30.2927 and -27.2185 and -29.2939 and -35.2937 and -29.3947 | cAMP accumulation, PTX-insensitive Gob (Fig. 2b) (hA1R:Gob; Log[Agonist] -7): -11.3 and -6.131 and -4.497 and -15.3895 and -20.4135 and -9.305 | cAMP accumulation, PTX-insensitive Gob (Fig. 2b) (hA1R:Gob; Log[Agonist] -7.5): -3.4 and 0.1928 and -6.183 and -4.138 and -8.294 and -3.294 | cAMP accumulation, PTX-insensitive Gob (Fig. 2b) (hA1R:Gob; Log[Agonist] -8): 0.0 and 0 (6×) | cAMP accumulation, PTX-insensitive Gob (Fig. 2b) (hA1R:Gob; Log[Agonist] -8.5): 0.0 and 0 (6×) | cAMP accumulation, PTX-insensitive Gob (Fig. 2b) (hA1R:Gob; Log[Agonist] -9): 0 (6×) and 0.0 | cAMP accumulation, PTX-insensitive Gob (Fig. 2b) (hA1R:Gob; Log[Agonist] -10): 0 (6×) and 0.0 | Emax (hA1R:Gob): -31.8% | Bias factor (Δ(τ/KA)) Gob (hA1R:Gob): 2.263 | Range rA3R (rA3R): 68.79 ± 3.67% | pIC50 hA3R (hA3R [3]; half-maximal response, cAMP inhibition): N.R. | Range hA3R (hA3R [3]): N.R. | Ki (hA3R [4]): > 100 µM
